Where “and” joins values, the source holds several entries; their conditions need not be identical. Equal values may be shown once.
Tests used:
[1] = test system: Lawn sods (bent grass; breed name: BENCROSS); assay: Soil culture of lawns, leaf surface sprinkling test; type: in vivo; conditions: for Weight of Cut Stem/Leaf after Dried (mean of three pots) / Weight of Cut Stem/Leaf after Dried (individual pots): cut on 77th day; for Weight of Cut Stem/Leaf after Dried (individual pots): three pots
Protocol: Lawn sods having a diameter of 4 cm and a thickness of 3 cm (bent grass; breed name: BENCROSS) were each planted in 1/50 m^2 Wagner pots, and a leaf surface sprinkling test was carried out on a group of three pots. To the soil of each pot, a chemical fertilizer (12-8-10) was add-mixed as the initial fertilizer in an amount of 1 g/pot. Serine was diluted with water to the concentrations shown in the following Table 1 and sprinkled by means of a sprinkler on the 10th day and 24th day after planting. On the 77th day after planting, the plant parts exposed on the ground were cut, and the weight thereof after dried was measured.

[2] = test system: Seedlings of lawns (western lawns; Evergreen Lawn Grass); assay: Hydroponics (water culture) of lawns, serine sprinkled over the surfaces of leaves; type: in vivo; conditions: 26th day
Protocol: Seedlings of lawns (western lawns; Evergreen Lawn Grass) were raised and were divided into two groups, A and B, each consisting of 60 seedlings so as to carry out water culture. A given amount of a liquid fertilizer was added to a water culture solution, to which inosine was then added to a concentration of 0.2 ppm. The testing period started on Oct. 6, 1999 and ended on Nov. 1, 1999 (26 days). Group A was set as a control area. As for Group B, 5 ml of a solution so prepared as to have a serine concentration of 20 ppm was sprinkled over the surfaces of leaves every day over a period of 15 days. On the 26th day, the weight of 5 average grown seedlings selected from each group was measured.

[3] = 5 ml of serine 20 ppm sprinkled on leaves daily for 15 days, inosine 0.2 ppm in water culture solution, 5 average seedlings

Structure (SMILES): N[C@@H](CO)C(=O)O [Serine, serine]
- Weight of Cut Stem/Leaf after Dried (mean of three pots) ([1]; serine 18.3 ppm sprinkled on 10th and 24th day): 2.27 ± 0.12 g/pot
- Weight of Cut Stem/Leaf after Dried (individual pots) ([1]; serine 18.3 ppm sprinkled on leaf surfaces on 10th and 24th day after planting): 2.17 g/pot and 2.43 g/pot and 2.20 g/pot
- Percentage (dried weight, Control = 100) ([1]; serine 18.3 ppm, 77th day, * statistically significant difference): 185*
- Weight of Cut Stem/Leaf after Dried (mean of three pots) ([1]; serine 183 ppm sprinkled on 10th and 24th day): 1.27 ± 0.16 g/pot
- Weight of Cut Stem/Leaf after Dried (individual pots) ([1]; serine 183 ppm sprinkled on leaf surfaces on 10th and 24th day after planting): 1.26 g/pot and 1.47 g/pot and 1.08 g/pot
- Percentage (dried weight, Control = 100) ([1]; serine 183 ppm, 77th day): 104
- Growth (in words) ([1]; serine-treated areas, particularly 18.3 ppm-treated areas, 77th day): good growth was observed
- Average Leaf Length [2, 3]: 22 cm
- Root Length [2, 3]: 4.1 cm
- Root length, leaf length and total weight in the raw state (in words) ([2]; serine-treated area): good
- Total Weight in Raw State ([2]; total of above-ground portions and roots of 5 undried lawn plants, serine 20 ppm on leaves daily for 15 days, inosine 0.2 ppm in water culture): 0.35 g

From patent US20040198605A1, “Growth promoter for gramineous plants” (priority 2001, published 2004)
